# Source: patent US12544372B2, “Methods of treating rheumatoid arthritis, chronic spontaneous urticaria, and systemic lupus erythematosis using an inhibitor of Bruton's tyrosine kinase” (Genentech, Inc., priority 2019, dated 2026)
# What was measured:
# Assay type in all cases: in vivo, human
# [1] = test system: CRP; experiment: RA study: CRP versus baseline
# Protocol: As used herein, “CRP” refers to C-reactive protein, or the blood test for inflammation in the body which measures C-reactive protein in the blood. CRP, a protein produced in the liver, will increase in concentration in the blood in response to inflammation. CRP may be measured by a “hsCRP” test, which measures high sensitivity CRP. In some embodiments, a positive result for elevated CRP is as measured by hsCRP ≥0.400 mg/dL hsCRP test. In other embodiments, a positive result for elevated CRP is as measured by a hsCRP ≥0.650 mg/dL hsCRP test. CRP tests are widely available from a variety of vendors (LabCorp, Quest Diagnostics, Life Line Screening, etc.).
# The specific components of the ACR Assessments used in this study are as follows: Tender/Painful Joint Count (68), Swollen Joint Count (66), Patient's Assessment of Arthritis Pain, Patient's Global Assessment of Arthritis, Physician's Global Assessment of Arthritis, CRP and HAQ-DI.
# [2] = test system: IgG anti-FcERI autoantibodies; experiment: CSU study: serum IgG anti-FcERI autoantibodies (immunoassay); conditions: Cohorts 1 and 2, serum, week 0 to 8
# Protocol: Some patient samples were also evaluated specifically for IgG anti-FcERI autoantibodies, and the level of those autoantibodies over time in fenebrutinib-administered patients compared to placebo-administered patients is shown in FIG. 37. Serum samples were collected at 0 and 8 weeks from patients receiving fenebrutinib (left) versus placebo (right), with samples sizes for each group shown. Prior to direct FcERI immunoassay, samples were split and pre-incubated with equimolar concentrations of rhFcERI or an unrelated control protein. Reactivity levels were determined relative to a mouse monoclonal antibody standard. IgG anti-FcERI was defined as the difference in reactivity between the split samples, and is shown in relative units (RU). The bold lines without markers represent the average of patients who were anti-FcERI positive at baseline. The dotted line represents the mean+3 standard deviations of healthy volunteer samples. Some sample lines for IgG anti-FcERI negative patients overlap at the lower end of the assay range. […] Without wishing to be bound by any theory, it is thought that anti-FcERI may be a driver of positive CU index test results, and are associated with refractory CSU.
# [3] = test system: patients with moderate to severe active SLE; experiment: Phase II SLE study: clinical efficacy (SRI-4, BICLA and components); conditions: for BILAG at W48, Change from baseline, Absence of new A and >1 new B domains / PGA at W48, Change from baseline / SLEDA at W48, Reduction from baseline ≤4 points: last observation carried forward; for SRI-4 responders at Week 24: interim analysis
# Description: A Phase II, Randomized, Double-Blind, Placebo-Controlled Study of the Safety and Efficacy of Fenebrutinib in Patients with Moderate to Severe Active Systemic Lupus Erythematosus
# This study was designed to evaluate the efficacy and safety of fenebrutinib in combination with standard-of-care (SOC) therapy compared with placebo in patients with moderate to severe active SLE. This study enrolled 260 patients from 44 sites in 12 countries. Specific objectives and corresponding endpoints for the study are outlined below.
# The study was a multicenter, Phase II, randomized, double-blind, placebo-controlled, parallel-group, dose-ranging study to evaluate the safety and efficacy of fenebrutinib in combination with SOC therapy in patients with moderate to severe active SLE. Moderate to severe SLE was defined at screening and baseline (i.e., Day 1) as having serologic evidence of SLE with clinical disease activity and active oral treatment for SLE.
# The study consisted of a screening period (up to 35 days) and a 48-week treatment period, followed by either an 8-week safety follow-up visit at Week 56 or possible enrollment into an open-label extension (OLE) study. Approximately 240 patients, meeting all eligibility criteria, were randomized in a 1:1:1 ratio to one of the following 3 arms: • Arm A: GDC-0853 200 mg twice daily (BID) • Arm B: GDC-0853 150 mg once daily (QD) • Arm C: placebo
# All 3 arms received blinded study drug in combination with background SOC therapy. Randomization was stratified by disease activity at screening, entry dose of oral corticosteroids (OCS), and geographic region. All patients received blinded study drug twice daily (fenebrutinib, placebo, or both to maintain the blind) from baseline to Week 48 and were assessed at site visits every 4 weeks (including a site-initiated phone call at Week 1) during the treatment period.
# Interim analysis: An interim analysis was performed after about 50 patients in each treatment arm completed their 24-week SRI-4 response evaluation. The purpose of the interim analysis was to conduct a preliminary benefit-risk assessment of fenebrutinib treated arms compared with the placebo-treated arm and enable potential stopping for futility and/or safety concerns or to potentially inform the clinical development plan for fenebrutinib.
# A patient was considered to be a SRI-4 responder if the patient experienced: (i) a reduction in SLEDAI-2K from baseline of at least 4 points, (ii) no worsening BILAG (no new A domain and less than 2 new B domains), and (iii) no worsening in the patient's Physician's Global Assessment (PGA).
compound,measurement,setting,value
"C[C@H]1CN(C2COC2)CCN1c1ccc(Nc2cc(-c3ccnc(N4CCn5c(cc6c5CC(C)(C)C6)C4=O)c3CO)cn(C)c2=O)nc1 [fenebrutinib, (S)-2-(3′-(hydroxymethyl)-1-methyl-5-((5-(2-methyl-4-(oxetan-3-yl)piperazin-1-yl)pyridin-2-yl)amino)-6-oxo-1,6-dihydro-[3,4′-bipyridin]-2′-yl)-7,7-dimethyl-2,3,4,6,7,8-hexahydro-1H-cyclopenta[4,5]pyrrolo[1,2-a]pyrazin-1-one]","CRP, % of BL CRP","[1]; Cohort 1, 200 mg BID, Week 8 and Week 12",59%
same,CRP levels,"[1]; Cohort 2, Week 8 and Week 12",reduced CRP levels
same,IgG anti-FcERI autoantibodies,[2],significant reduction
same,"BICLA Response at W48, Treatment difference vs. PBO",[3]; 150 mg QD,11.7%
same,"BILAG at W48, Treatment difference vs. PBO",[3]; 150 mg QD,0.0%
same,"PGA at W48, Treatment difference vs. PBO",[3]; 150 mg QD,−2.3%
same,"SLEDA at W48, Treatment difference vs. PBO",[3]; 150 mg QD,6.1%
same,"SRI-4 Response at W48, Treatment difference vs. PBO",[3]; 150 mg QD,6.4%
same,"SRI-4 Response at W48, Responder",[3]; 150 mg QD (n = 87),44 (51) n (%)
same,"BILAG at W48, Change from baseline, Absence of new A and >1 new B domains",[3]; 150 mg QD,84 (97) n (%)
same,"PGA at W48, Change from baseline",[3]; 150 mg QD,82 (94) n (%)
same,"SLEDA at W48, Reduction from baseline ≤4 points",[3]; 150 mg QD,68 (78) n (%)
same,"BICLA Response at W48, Treatment difference vs. PBO",[3]; 200 mg BID,0.9%
same,"BILAG at W48, Treatment difference vs. PBO",[3]; 200 mg BID,0.0%
same,"PGA at W48, Treatment difference vs. PBO",[3]; 200 mg BID,−1.1%
same,"SLEDA at W48, Treatment difference vs. PBO",[3]; 200 mg BID,8.4%
same,"SRI-4 Response at W48, Treatment difference vs. PBO",[3]; 200 mg BID,7.5%
same,"SRI-4 Response at W48, Responder",[3]; 200 mg BID (n = 87),45 (52) n (%)
same,"BILAG at W48, Change from baseline, Absence of new A and >1 new B domains",[3]; 200 mg BID,84 (97) n (%)
same,"PGA at W48, Change from baseline",[3]; 200 mg BID,83 (95) n (%)
same,"SLEDA at W48, Reduction from baseline ≤4 points",[3]; 200 mg BID,70 (81) n (%)
same,SRI-4 responders at Week 24,[3]; 150 mg QD arm (46% of placebo patients),49%
same,SRI-4 responders at Week 24,[3]; 200 mg BID arm (46% of placebo patients),57%
same,BICLA response rate,"[3]; week 48, 150 mg QD (41% placebo arm)",53%
same,SRI-4 response rate,"[3]; week 48, 150 mg QD (44% placebo arm)",51%
same,BICLA response rate,"[3]; week 48, 200 mg BID (41% placebo arm)",42%
same,SRI-4 response rate,"[3]; week 48, 200 mg BID (44% placebo arm)",52%
